What all share (test): Cytochrome P450 Inhibition of VNN1 Inhibitors
The target in data set [1] is T1, Cytochrome P450 1A2 (Homo sapiens, UniProt P05177).
T1 sequence (P05177 whole entry): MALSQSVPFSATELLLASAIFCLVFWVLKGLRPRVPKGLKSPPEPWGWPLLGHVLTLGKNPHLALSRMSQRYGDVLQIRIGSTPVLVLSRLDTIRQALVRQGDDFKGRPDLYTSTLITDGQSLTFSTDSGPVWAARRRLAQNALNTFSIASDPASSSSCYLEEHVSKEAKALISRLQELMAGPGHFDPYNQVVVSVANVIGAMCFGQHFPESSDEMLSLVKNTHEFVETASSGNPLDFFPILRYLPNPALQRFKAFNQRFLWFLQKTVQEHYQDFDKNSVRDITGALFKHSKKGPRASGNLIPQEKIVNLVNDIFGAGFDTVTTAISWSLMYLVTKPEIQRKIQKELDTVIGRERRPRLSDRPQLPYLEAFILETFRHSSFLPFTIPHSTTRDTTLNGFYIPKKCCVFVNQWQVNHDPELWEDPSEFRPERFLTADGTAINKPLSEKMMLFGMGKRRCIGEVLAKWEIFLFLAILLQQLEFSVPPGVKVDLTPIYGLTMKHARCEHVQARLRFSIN
The protocol:
(§1) Table 3 and 4: The cocktail was incubated in human liver microsome with NADPH regenerating system (NRS) in a shaking bath at 37±2° C. The formation of specific metabolites was monitored by LC/MS/MS. Test compound was added to the cocktail-liver microsome mixture at varying concentrations and its effect on cytochrome P450 activity was determined by analyzing the rate of specific metabolite formation. The percent inhibition was calculated and plotted with reference to the concentration, and the IC50 value for inhibition was derived by fitting the data with a standard sigmoidal dose-response equation via MLA “Quest Graph™ ED50 Calculator.” AAT Bioquest, Inc, 17 Sep. 2020, aatbio.com/tools/ed50-calculator. […] The reliability of the inhibition assay was established by confirming the inhibition of known inhibitors on different P450 enzymes.

Data set [2] has as its target Cytochrome P450 2C19 (Homo sapiens, UniProt P33261). The protocol: as §1
Data set [3] addresses Cytochrome P450 2C9 (Homo sapiens, UniProt P11712). Here is the method: as §1

The text below walks through data of BindingDB's records for patent US20250042850 (Athos Therapeutics, 2025).

Cytochrome P450 2C9, sequence (P11712 whole entry): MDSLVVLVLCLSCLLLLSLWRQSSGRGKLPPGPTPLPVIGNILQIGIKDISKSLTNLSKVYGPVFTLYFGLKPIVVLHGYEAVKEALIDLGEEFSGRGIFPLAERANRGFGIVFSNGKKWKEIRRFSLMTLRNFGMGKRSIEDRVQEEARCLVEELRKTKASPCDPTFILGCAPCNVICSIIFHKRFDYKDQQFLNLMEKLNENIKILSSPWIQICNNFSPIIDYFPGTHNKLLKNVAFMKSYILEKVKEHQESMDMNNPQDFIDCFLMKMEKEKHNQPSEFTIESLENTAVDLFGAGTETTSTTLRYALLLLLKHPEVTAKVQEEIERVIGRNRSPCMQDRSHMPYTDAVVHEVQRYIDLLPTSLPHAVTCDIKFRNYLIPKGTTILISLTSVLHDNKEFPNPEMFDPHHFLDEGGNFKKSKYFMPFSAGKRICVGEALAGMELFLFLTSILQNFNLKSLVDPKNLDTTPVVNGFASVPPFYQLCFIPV
Cytochrome P450 2C19, sequence (P33261 whole entry): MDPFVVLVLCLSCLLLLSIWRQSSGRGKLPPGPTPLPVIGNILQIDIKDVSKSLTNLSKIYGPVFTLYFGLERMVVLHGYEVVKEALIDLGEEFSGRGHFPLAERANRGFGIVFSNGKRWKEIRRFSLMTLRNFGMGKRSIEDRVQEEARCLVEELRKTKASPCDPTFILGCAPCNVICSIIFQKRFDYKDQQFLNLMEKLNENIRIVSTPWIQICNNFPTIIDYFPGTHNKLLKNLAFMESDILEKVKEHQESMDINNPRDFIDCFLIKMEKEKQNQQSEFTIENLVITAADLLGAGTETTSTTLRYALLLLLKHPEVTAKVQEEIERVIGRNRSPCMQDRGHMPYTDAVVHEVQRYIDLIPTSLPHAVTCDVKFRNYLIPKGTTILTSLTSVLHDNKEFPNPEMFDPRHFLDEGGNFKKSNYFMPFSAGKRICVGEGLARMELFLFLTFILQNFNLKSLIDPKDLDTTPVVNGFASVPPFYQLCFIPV

As to `CC(C)(CO)[C@@H](O)C(=O)n1ccc(C(=O)N2CCCC2)c1` [US20250042850, Compound 10], the IC50 in data set [1] was above 100 µM; in data set [2], 62.6 µM; in data set [3], above 100 µM.
